Laboratory results published in publication PMC7150891, “Mertansine Inhibits mRNA Expression and Enzyme Activities of Cytochrome P450s and Uridine 5′-Diphospho-Glucuronosyltransferases in Human Hepatocytes and Liver Microsomes” (Pharmaceutics, 2020).
Where two headings read alike, the source gives them in different places. Marks after values point to notes of the source that are not given here. Where a SMILES comes first, the peptide text is derived from it. [ ]: non-standard residue; d: D form. The star is where a group is joined. Dolaproine = CO[C@@H]([C@@H]1CCCN1)[C@@H](C)C(=O)O; Dil = CC[C@H](C)[C@H](NC)[C@@H](CC(=O)O)OC; X1 = C[C@@H](N*)[C@@H](O)c1ccccc1; NMeV = CN[C@H](C(=O)O)C(C)C

How the values were obtained:
[1] = tested on: CYP2B6 mRNA; test: CYP2B6 mRNA level in human hepatocytes after 48 h treatment (RT-PCR); format: cell-based; settings: 48 h, 10 nM
Excerpt: (§1) 12.5 (Systat Software, Inc.; San Jose, CA, USA). […] 1.1 (Systat Software, Inc.).

[2] = tested on: CYP2B6; test: CYP2B6-catalyzed bupropion hydroxylase activity in human hepatocytes after 48 h treatment; settings: human, 48 h, 10 nM
Experimental: (§2) Samples were incubated for 48 h at 37 °C in 5% CO2, and the medium was exchanged with 250 μL of fresh medium containing drugs or the vehicle every 24 h.
(§3) The effects of mertansine on CYP1A2, CYP2B6, and CYP3A4 activities were evaluated. […] Mixtures were vortexed for 2 min and then centrifuged at 13,000 g for 4 min at 4 °C. The supernatant (40 µL) was diluted with 60 µL of deionized water and then mixed for 2 min by vortexing. An aliquot (5 µL) was analyzed using LC-MS/MS [37], and CYP1A2, CYP2B6, and CYP3A4 enzyme activities were expressed as formation rates (pmol/million cells/min).
(§4) The percentage changes in enzymatic activities were calculated as (CYP activity with test compound treatment/CYP activity with vehicle control treatment) × 100. The IC50 (the concentration of the inhibitor needed for half-maximal inhibition) values were calculated using SigmaPlot ver. […] Ki (the inhibition constant) and the inhibition mode of UGT1A1, UGT1A3, and UGT1A4 activities were determined using Enzyme Kinetics ver. 1.1 (Systat Software, Inc.).

[3] = tested on: CYP activities; parameters: method as in PMID 22752008; settings: three human hepatocytes, cited from earlier work
[4] = tested on: CYP1A2, CYP2B6, and CYP3A4 mRNA; parameters: method as in PMID 22752008; settings: three human hepatocytes, cited from earlier work
[5] = tested on: CYP1A2 mRNA; test: CYP1A2 mRNA level in human hepatocytes after 48 h treatment (RT-PCR); format: cell-based; settings: 48 h, 50 µM
Excerpt: as §1

[6] = tested on: UGT1A1 mRNA; test: UGT1A1 mRNA level in human hepatocytes after 48 h treatment (RT-PCR); settings: 48 h
[7] = tested on: CYP1A2; test: CYP1A2-catalyzed phenacetin O-deethylase activity in human hepatocytes after 48 h treatment; settings: 48 h; for Enzyme Activities: CYP1A2-catalyzed phenacetin O-deethylase activity: Omeprazole 50 μM
Experimental: as §2, §3, §4

[8] = tested on: UGT1A4 mRNA; test: UGT1A4 mRNA level in human hepatocytes after 48 h treatment (RT-PCR); settings: 50 μM omeprazole, 48 h, range over three human hepatocytes
[9] = tested on: CYP2C19 mRNA; settings: human, hepatocytes, 48 h, 10 μM
[10] = tested on: CYP2C8 mRNA; settings: human, hepatocytes, 48 h, 10 μM
[11] = tested on: HER2-positive metastatic breast cancer; settings: five randomized clinical trials, 3,720 patients; cited from earlier work

## Clc1ccc(-c2nc3sccn3c2C=NOCc2ccc(Cl)c(Cl)c2)cc1 [CITCO, 6-(4-chlorophenyl)imidazo[2,1-b](1,3)thiazole-5-carbaldehyde-O-(3,4-dichlorobenzyl)oxime]
[1]
  Increase of CYP2B6 mRNA levels: 5.6–8.7 fold
[2]
  Increase of CYP2B6-mediated bupropion hydroxylase activity: 3.8–15.7 fold

## CC[C@H](C)[C@@H]([C@@H](CC(=O)N1CCC[C@H]1[C@H](OC)[C@@H](C)C(=O)N[C@H](C)[C@@H](O)c1ccccc1)OC)N(C)C(=O)[C@@H](NC(=O)[C@@H](NC)C(C)C)C(C)C [MMAE, monomethyl auristatin E] (H-[NMeV]V[Dil][Dolaproine]-X1)
[3]; 100 nM MMAE
  Decrease of CYP activities: 40–71%
[3]; 1000 nM MMAE
  Decrease of CYP activities: 45–81%
[4]; 100 nM MMAE
  Suppression of CYP1A2, CYP2B6, and CYP3A4 mRNA expression: 61–90%
[4]; 1000 nM MMAE
  Suppression of CYP1A2, CYP2B6, and CYP3A4 mRNA expression: 95–97%

## COc1ccc2[nH]c([S+]([O-])Cc3ncc(C)c(OC)c3C)nc2c1 (centres unmarked) [Omeprazole, omeprazole]
[5]
  Increase of CYP1A2 mRNA levels: 58.7–299.3 fold
[6]; 50 μM omeprazole, range over three human hepatocytes
  Increase of UGT1A1 mRNA levels: 3.9–7.0 fold
[6]; Omeprazole 50 μM, Lot 319
  UGT1A1 mRNA (Fold Change): 6.97 ± 0.94 Fold Change
[7]; 50 µM omeprazole, vs vehicle, range over three human hepatocytes
  Increase of CYP1A2-mediated phenacetin O-deethylase activity: 11.7–61.8 fold
[7]; Lot 319
  Enzyme Activities: CYP1A2-catalyzed phenacetin O-deethylase activity: 18.5 ± 3.3 ^a pmol/10^6 Cells/min
[7]; Lot 321
  Enzyme Activities: CYP1A2-catalyzed phenacetin O-deethylase activity: 89.45 ± 4.52 ^a pmol/10^6 Cells/min
[7]; Lot 361
  Enzyme Activities: CYP1A2-catalyzed phenacetin O-deethylase activity: 81.0 ± 0.53 ^a pmol/10^6 Cells/min
[8]
  Increase of UGT1A4 mRNA levels: 3.3–4.1 fold

## CO[C@H]1/C=C/O[C@@]2(C)Oc3c(C)c(O)c4c(O)c(c(/C=N/N5CCN(C)CC5)c(O)c4c3C2=O)NC(=O)/C(C)=C\C=C\[C@H](C)[C@H](O)[C@@H](C)[C@@H](O)[C@@H](C)[C@H](OC(C)=O)[C@@H]1C [Rifampin, rifampin]
[9]
  Increase of CYP2C19 mRNA levels: 2.0–2.2 fold
[10]
  Increase of CYP2C8 mRNA levels: 3.7–4.8 fold

## trastuzumab emtansine [T-DM1]
[11]
  Progression-free survival and overall survival compared to other anti-HER2 therapies: significantly prolonged
